Reference: patent publication US20210318315A1, “ULTRA-HIGH-THROUGHPUT MICROFLUIDIC ENZYME SCREENING PLATFORM FOR ENZYME DEVELOPMENT” (National University of Singapore, priority 2020, published 2021)

Legend:
[1] = tested on: fluorescent protein-based NAD^+ biosensor (fluorescent core domain and bipartite NAD^+ binding domain); assay: NAD^+ detection with fluorescent protein biosensor in microdroplets (fluorescence quenching by NAD^+ binding); type: biochemical; conditions: 1 mM of NAD^+, excitation at 488 nm, emission at 520 nm
From the text: In some embodiments, the detection reagent comprises a biosensor, such as a protein biosensor, as one non-limiting example of a biosensor. The biosensor may be configured to react with the cofactor (or a redox couple of the cofactor) to generate (or quench) a luminescent signal. The generation (or quenching) of the luminescent signal may be used to detect, screen, and/or isolate droplets containing the target enzyme. In one example, the protein biosensor comprises a fluorescent core domain and a bipartite NAD+ and/or NADP+ binding domain. The fluorescent core domain has an excitation at 488 nm and an emission at 520 nm. In the presence of NAD+ and/or NADP+, the fluorescence from the core domain is quenched by binding of the NAD+ and/or NADP+ to the bipartite binding domain.
A fluorescent protein-based NAD^+ biosensor was developed for quantitative detection of NAD^+. […] In this setup, the fluorescence from the core domain was quenched by NAD^+ binding corresponding to the concentration of the bound NAD^+ (FIG. 12A). The biosensor fluorescence intensity and NAD^+ concentration were negatively correlated in the range of 1 to 1000 μM of NAD^+. […] A nearly-linear correlation between the biosensor fluorescence intensity and NAD^+ concentration was shown at range of 50 μM to 1000 μM of NAD^+.

[2] = tested on: thiolated DBC1 protein (deleted in breast cancer 1), NAD^+ binding domain linked to CdSe/CdS/CdZnS/ZnS quantum dot; assay: NAD^+ detection with quantum dot sensor linked to thiolated DBC1 protein (fluorescence quenching); type: biochemical; conditions: for reduction of fluorescence signal of the sensor: 1.5 μM of sensor, in microfluidics (droplets)
Experimental: (4) Preparation of thiolated DBC1 protein (deleted in breast cancer 1). DBC1 protein was prepared by treated protein with 2-iminothiolane to introduce sulfhydryl residues onto a sulfydril:protein ratio of ˜20. Five mg of DBC1 dissolved in 1 mL of PBS (pH 7.4) was allowed to react with 2 mg of 2-iminothilane.HCl and kept at 4° C. for 2 h with vortex. The resulting solution was filtered through a size-exclusion centrifugal filter device (Micron YM-30, Millipore).
(5) Preparation of DBC1 protein coated QDs. The MPA capped QDs were incubated with thiolated DBC1 protein in HEPES buffer (pH 7.4) for 5 days at 4° C.
Another example for NAD^+ sensing was developed with a quantum dot fluorescence sensor through FRET effect (FIG. 13A). The highly fluorescent CdSe quantum dot core was coated with 3-mercaptopropionic acid and linked to a NAD^+ binding domain (thiolated DBC1 protein sensor). The protein sensor was reported to specifically bind NAD^+. When such binding occurs, the fluorescence of quantum dot was effectively quenched (FIG. 13B). Consequently, the fluorescence signal of the quantum dot sensor was negatively correlated to NAD+ concentration. This allowed accurate determination of NAD^+ based on the change of fluorescence signal.
The performance of the quantum dot NAD^+ sensor was explored. The quantitative NAD^+ quenching was further examined and validated with an excitation at 538 nm and the fluorescence emission is detected at 595 nm. As concentration of NAD^+ increased, the fluorescence of the sensor was quenched at a very low NAD^+ concentration. The sensor enabled the detection of NAD^+ with a detection limit of 30 μM with a sensor concentration of 1.5 μM with a fixed incubation time of 20 minutes. When the NAD^+ concentration reached 250 μM and above, more than 90% fluorescence signal is quenched. […]
For the NAD^+ detection in microfluidics, the fluorescence of 1.5 μM of sensor was examined with different concentration of NAD^+. The fluorescence signal of the sensor reduced ˜25% when incubated with 200 μM NAD^+, and reduced 45% in the presence of 250 μM NAD^+ (FIG. 14A). […]

NC(=O)c1ccc[n+]([C@@H]2O[C@H](COP(=O)([O-])OP(=O)(O)OC[C@H]3O[C@@H](n4cnc5c(N)ncnc54)[C@H](O)[C@@H]3O)[C@@H](O)[C@H]2O)c1 [NAD^+, nicotinamide adenine dinucleotide]
lower fluorescence signal (quenching by NAD^+) [1]: 21% | reduction of fluorescence signal of the sensor ([2]; 200 μM NAD^+): ~25% | reduction of fluorescence signal of the sensor ([2]; 250 μM NAD^+): 45% | fluorescence signal quenched ([2]; NAD^+ 250 μM and above, sensor 1.5 μM, incubation 20 minutes, excitation at 538 nm, emission at 595 nm): more than 90%
